Reference: patent US11059766B2, “Ethynyl derivatives” (Hoffmann-La Roche Inc., priority 2015, dated 2021)

Columns and labels:
[1] = target: T1, human mGlu5a receptor (Homo sapiens (Human), UniProt P41594); assay: MPEP binding assay ([3H]MPEP displacement); details: for EC50: [3H]MPEP 2 nM, EBNA cell membranes, read-out: mGlu5-MPEP binding EC50; for Ki: comparison table
Protocol: For binding experiments, cDNA encoding human mGlu5a receptor was transiently transfected into EBNA cells using a procedure described by Schlaeger and Christensen [Cytotechnology 15:1-13 (1998)]. Cell membrane homogenates were stored at −80° C. until the day of assay where upon they were thawed and resuspended and polytronised in 15 mM Tris-HCl, 120 mM NaCl, 100 mM KCl, 25 mM CaCl2, 25 mM MgCl2 binding buffer at pH 7.4 to a final assay concentration of 20 μg protein/well.
Saturation isotherms were determined by addition of twelve [^3H]MPEP concentrations (0.04-100 nM) to these membranes (in a total volume of 200 μl) for 1 h at 4° C. Competition experiments were performed with a fixed concentration of [^3H]MPEP (2 nM) and IC50 values of test compounds evaluated using 11 concentrations (0.3-10,000 nM). Incubations were performed for 1 h at 4° C.
At the end of the incubation, membranes were filtered onto unifilter (96-well white microplate with bonded GF/C filter preincubated 1 h in 0.1% PEI in wash buffer, Packard BioScience, Meriden, Conn.) with a Filtermate 96 harvester (Packard BioScience) and washed 3 times with cold 50 mM Tris-HCl, pH 7.4 buffer. Nonspecific binding was measured in the presence of 10 μM MPEP. The radioactivity on the filter was counted (3 min) on a Packard Top-count microplate scintillation counter with quenching correction after addition of 45 μl of microscint 40 (Canberra Packard S. A., Zürich, Switzerland) and shaking for 20 min.

[2] = rat Vogel conflict drinking test; assay type: in vivo
[3] = target: T1, human mGlu5a receptor; assay: Intracellular Ca2+ mobilization assay (mGlu5 PAM assay); assay type: cell-based; details: for mGlu5 PAM EC50: HEK-293 cells, glutamate at EC20; for Activity profile: PAM or NAM; for EC50 (nM) mGlu5 PAM assay: comparison table; for Efficacy: maximal response in % of maximal stimulatory effect of saturating L-glutamate
Protocol: A monoclonal HEK-293 cell line stably transfected with a cDNA encoding for the human mGlu5a receptor was generated; for the work with mGlu5 Positive Allosteric Modulators (PAMs), a cell line with low receptor expression levels and low constitutive receptor activity was selected to allow the differentiation of agonistic versus PAM activity. Cells were cultured according to standard protocols (Freshney, 2000) in Dulbecco's Modified Eagle Medium with high glucose supplemented with 1 mM glutamine, 10% (vol/vol) heat-inactivated bovine calf serum, Penicillin/Streptomycin, 50 μg/ml hygromycin and 15 μg/ml blasticidin (all cell culture reagents and antibiotics from Invitrogen, Basel, Switzerland).
About 24 hrs before an experiment, 5×10^4 cells/well were seeded in poly-D-lysine coated, black/clear-bottomed 96-well plates. The cells were loaded with 2.5 μM Fluo-4AM in loading buffer (1×HBSS, 20 mM HEPES) for 1 hr at 37° C. and washed five times with loading buffer. The cells were transferred into a Functional Drug Screening System 7000 (Hamamatsu, Paris, France), and 11 half logarithmic serial dilutions of test compound at 37° C. were added and the cells were incubated for 10-30 min with on-line recording of fluorescence. Following this pre-incubation step, the agonist L-glutamate was added to the cells at a concentration corresponding to EC20 (typically around 80 μM) with on-line recording of fluorescence; in order to account for day-to-day variations in the responsiveness of cells, the EC20 of glutamate was determined immediately ahead of each experiment by recording of a full dose-response curve of glutamate.
Responses were measured as peak increase in fluorescence minus basal (i.e. fluorescence without addition of L-glutamate), normalized to the maximal stimulatory effect obtained with saturating concentrations of L-glutamate. Graphs were plotted with the % maximal stimulatory using XLfit, a curve fitting program that iteratively plots the data using Levenburg Marquardt algorithm. The single site competition analysis equation used was y=A+((B−A)/(1+((x/C)D))), where y is the % maximal stimulatory effect, A is the minimum y, B is the maximum y, C is the EC50, x is the log 10 of the concentration of the competing compound and D is the slope of the curve (the Hill Coefficient). From these curves the EC50 (concentration at which half maximal stimulation was achieved), the Hill coefficient as well as the maximal response in % of the maximal stimulatory effect obtained with saturating concentrations of L-glutamate were calculated.
A depression of the signal observed after addition of the EC20 concentration of L-glutamate was indicative of an inhibitory activity of the test compound.

T1 sequence (P41594 other isoform, or with tags, fused parts or gaps): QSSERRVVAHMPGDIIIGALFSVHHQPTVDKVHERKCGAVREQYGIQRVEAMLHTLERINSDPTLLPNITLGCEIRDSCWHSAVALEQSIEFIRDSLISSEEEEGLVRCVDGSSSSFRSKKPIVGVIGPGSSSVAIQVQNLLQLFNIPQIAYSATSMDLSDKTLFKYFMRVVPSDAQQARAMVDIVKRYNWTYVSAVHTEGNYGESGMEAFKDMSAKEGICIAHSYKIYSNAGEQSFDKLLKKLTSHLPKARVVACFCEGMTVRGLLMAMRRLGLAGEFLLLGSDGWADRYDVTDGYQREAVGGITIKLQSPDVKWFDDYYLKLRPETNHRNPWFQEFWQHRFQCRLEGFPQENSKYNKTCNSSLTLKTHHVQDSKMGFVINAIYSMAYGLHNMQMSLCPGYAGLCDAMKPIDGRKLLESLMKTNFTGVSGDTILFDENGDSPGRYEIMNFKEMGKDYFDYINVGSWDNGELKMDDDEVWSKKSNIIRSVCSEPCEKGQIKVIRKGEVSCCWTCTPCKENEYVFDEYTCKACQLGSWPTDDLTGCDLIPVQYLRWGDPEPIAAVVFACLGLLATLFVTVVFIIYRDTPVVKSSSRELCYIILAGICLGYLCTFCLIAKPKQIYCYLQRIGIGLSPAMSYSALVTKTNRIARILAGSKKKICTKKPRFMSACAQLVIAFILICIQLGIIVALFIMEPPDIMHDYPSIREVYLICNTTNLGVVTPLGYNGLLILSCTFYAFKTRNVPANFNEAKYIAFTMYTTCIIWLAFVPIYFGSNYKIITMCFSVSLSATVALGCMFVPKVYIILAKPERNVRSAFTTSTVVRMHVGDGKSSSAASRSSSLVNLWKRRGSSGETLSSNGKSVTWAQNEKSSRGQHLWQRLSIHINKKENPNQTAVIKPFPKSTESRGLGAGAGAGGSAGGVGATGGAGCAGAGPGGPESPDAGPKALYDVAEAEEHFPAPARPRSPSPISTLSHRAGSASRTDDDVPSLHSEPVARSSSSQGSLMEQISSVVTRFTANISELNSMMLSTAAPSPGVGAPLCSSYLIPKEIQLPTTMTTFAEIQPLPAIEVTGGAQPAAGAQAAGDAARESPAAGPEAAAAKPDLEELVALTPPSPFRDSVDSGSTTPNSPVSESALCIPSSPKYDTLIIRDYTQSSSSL

Compound	EC50 [1] [nM]	Ki [1] [nM]	minimal effective dose (anxiolytic activity) [2] [mg/kg]	mGlu5 PAM EC50 [3]	Activity profile [3]	EC50 (nM) mGlu5 PAM assay [3]	Efficacy [3] [%]
CN1C(=O)N(c2ccc(C#Cc3ccccc3)cn2)[C@@H]2CC[C@@H]21 [Example 1, (−)-(1 S,5R)-2-methyl-4-(5-(phenylethynyl)pyridin-2-yl)-2,4-diazabicyclo[3.2.0]heptan-3-one]	9	9	0.1	inactive	NAM	inactive	–
CN1C(=O)N(c2ccc(C#Cc3cccc(F)c3)cn2)[C@@H]2CC[C@@H]21 [Example 2, (−)-(1R,5S)-2-[5-(3-Fluoro-phenylethynyl)-pyridin-2-yl]-4-methyl-2,4-diazabicyclo[3.2.0]heptan-3-one]	5	5	–	inactive	NAM	inactive	–
CN1C(=O)N(c2ccc(C#Cc3ccc(F)cc3)cn2)[C@@H]2CC[C@@H]21 [Example 3, (−)-(1R,5S)-2-[5-(4-Fluoro-phenylethynyl)-pyridin-2-yl]-4-methyl-2,4-diazabicyclo[3.2.0]heptan-3-one]	4	4	–	inactive	NAM	inactive	–
CN1C(=O)N(c2ccc(C#Cc3cc(F)ccc3F)cn2)[C@@H]2CC[C@@H]21 [Example 4, (−)-(1R,5S)-2-[5-(2,5-Difluoro-phenylethynyl)-pyridin-2-yl]-4-methyl-2,4-diazabicyclo[3.2.0]heptan-3-one]	3	3	–	inactive	NAM	inactive	–
CN1C(=O)N(c2ccc(C#Cc3ccccc3)cn2)[C@@H]2CCC[C@@H]21 [Ref. 1; Ex. 106, reference compound]	–	8	–	–	PAM	–	42
CN1C(=O)N(c2ccc(C#Cc3cccc(F)c3)cn2)[C@@H]2CCC[C@@H]21 [Ref. 1; Ex. 109, reference compound]	12	37	–	–	PAM	–	37
